Patent US20230151065A1, “MULTI-DISULFIDE-BOND LONG-CHAIN PEPTIDE WITH NEURO[…], PHARMACEUTICAL COMPOSITION AND APPLICATION” (priority 2018, published 2023)
Where no end group is shown, it is not given here.

Tests used:
Format in all cases: cell-based
[1] = tested on: primary cultured SD fetal rat cortical neurons after OGD damage; experiment: OGD damage of cortical neurons, observation under light microscope; settings: OGD 2 h, 24 h reoxygenation; ABPPk2 medium-dose (40 ng/ml) and high-dose (200 ng/ml) groups vs OGD damage group
Description: (§1) The suspension was filtered with a 400-mesh screen, centrifuged at 1000 rpm for 5 min, and blown to form the single cell suspension. DMEM high glucose complete medium (containing 10% fetal bovine serum) was inoculated in a culture dish or culture plate pre-coated with polylysine (PLL) to culture in 5% CO2 incubator with saturated humidity at 37° C. After the cells were cultured for 4 h to adhere to the wall, the cells were cultured with neuron culture medium (neurobasal+2% B27) for 3 d to observe the growth of neurons. The culture medium containing cytarabine (the final concentration of cytarabine was 2.5 μg/ml) was substituted with half quantity to culture for 3d to inhibit the growth of glial cells and miscellaneous cells to obtain purely cultured primary cortical nerve cells. The purity of the cortical neurons was identified by immunocytochemical staining as more than 90%.
After the cortical neurons were cultured to the 7th day, the original culture medium was sucked out, and the cells were rinsed twice with sugar-free DMEM basal medium, for 5 min each time. Each OGD damage group was added with DMEM sugar-free culture medium, placed in a Billups-Rothenberg anaerobic culture chamber, filled with 95% N2/5% CO2 to balance for 15 min, and sealed for 2 h to build an OGD model. […]

[2] = tested on: primary cultured SD fetal rat cortical neurons after OGD damage; experiment: OGD damage of cortical neurons, CCK-8 activity; settings: OGD 2 h, 24 h reoxygenation; ABPPk2 8, 40, 200 ng/ml; effect more obvious as dose increased
Description: as §1
After the cortical neurons were cultured to the 7th day, the original culture medium was sucked out, and the cells were rinsed twice with sugar-free DMEM basal medium, for 5 min each time. […]
Analysis of cortical neuron activity after OGD damage and drug treatment: cortical neurons were inoculated into 96-well plates at 1×10^6 cells/ml; and 100 μl cell suspension was added to each well. […] The absorbance (OD) value of the sample in each well was measured on the microplate reader at 450 nm wavelength. […]

[3] = tested on: primary cultured SD fetal rat cortical neurons after OGD damage; experiment: OGD damage of cortical neurons, Western blot of apoptosis-related proteins
[4] = tested on: primary fetal rat hippocampal neurons; experiment: Growth of hippocampal neurons, label-free real time cell analysis (RTCA); settings: ABPPk2 4, 20, 100 ng/ml
Description: (1) Primary culture of fetal rat hippocampal neurons: after a rat pregnant for 17 days was anesthetized, a fetal rat was taken out under sterile conditions; the brain of the fetal rat was taken out on ice; the hippocampus was carefully taken out under a dissecting microscope; and the blood vessel membranes were removed. 0.125% trypsin/EDTA was digested at 37° C. for 10 min, and the digestion was stopped by adding the DMEM complete medium containing 10% FBS. Cell debris were removed through centrifugal at 1000 rpm for 5 min; the DMEM complete medium was added to resuspend the cells; the cells were gently blown until a single cell suspension was formed; and the cells were inoculated at an appropriate density on a culture plate (dish) pre-coated with polylysine (PLL) and cultured at 37° C., 5% CO2 incubator. After 4 h, the cells were adhered to the wall; the DMEM complete medium was discarded and replaced with neurobasal medium containing different concentrations of ABPPk2 (the concentrations of ABPPk2 were 4 ng/ml, 20 ng/ml and 100 ng/ml); the neurobasal medium containing 10 ng/ml BDNF was used as the positive control group, and neurobasal was used as the negative control group. […]

[5] = tested on: primary fetal rat hippocampal neurons; experiment: Growth of hippocampal neurons, live cell station; settings: ABPPk2 100 ng/ml, observed for 48 h
Description: (1) Primary culture of fetal rat hippocampal neurons: after a rat pregnant for 17 days was anesthetized, a fetal rat was taken out under sterile conditions; the brain of the fetal rat was taken out on ice; the hippocampus was carefully taken out under a dissecting microscope; and the blood vessel membranes were removed. 0.125% trypsin/EDTA was digested at 37° C. for 10 min, and the digestion was stopped by adding the DMEM complete medium containing 10% FBS. Cell debris were removed through centrifugal at 1000 rpm for 5 min; the DMEM complete medium was added to resuspend the cells; the cells were gently blown until a single cell suspension was formed; and the cells were inoculated at an appropriate density on a culture plate (dish) pre-coated with polylysine (PLL) and cultured at 37° C., 5% CO2 incubator. After 4 h, the cells were adhered to the wall; the DMEM complete medium was discarded and replaced with neurobasal medium containing different concentrations of ABPPk2 (the concentrations of ABPPk2 were 4 ng/ml, 20 ng/ml and 100 ng/ml); the neurobasal medium containing 10 ng/ml BDNF was used as the positive control group, and neurobasal was used as the negative control group.
(3) Neuron growth was observed by a live cell station: the hippocampal neuron single cell suspension obtained in (1) was inoculated on a culture plate pre-coated with PLL at a cell density of 5×10^5. […]

[6] = after OGD damage and treatment with ABPPk2
[7] = total protein, ABPPk2 medium-dose (40 ng/ml) and high-dose (200 ng/ml) groups vs OGD damage group

## Cys-Leu-Glu-Ser-Gly-Thr-Ser-Cys-Ile-Pro-Gly-Ala-Gln-His-Asn-Cys-Cys-Ser-Gly-Val-Cys-Val-Pro-Ile-Val-Thr-Ile-Phe-Tyr-Gly-Val-Cys-Tyr (CLESGTSCIPGAQHNCCSGVCVPIVTIFYGVCY; disulfide (positions not given here); not fully specified (bridges); also: three disulfide bonds, pairing not given here) [ABPPk2, 33 amino acid polypeptide isolated from the extract of Achyranthes bidentata Blume, three pairs of disulfide bonds]
[1]
  dead cells under light microscope: the number of dead cells is significantly reduced
[2]
  cortical neuron activity (CCK-8): can effectively antagonize the decrease of cortical neuron activity caused by OGD damage
[3]; [6]
  expression of AIF in mitochondria: significantly up-regulated
  expression of AIF in the nucleus: significantly down-regulated
  expression of Cyt C in cytoplasma: significantly down-regulated
  expression of Cyt C in mitochondria: significantly up-regulated
[3]; total protein, ABPPk2 high-dose group (200 ng/ml) vs OGD damage group
  Bcl-2 expression: significantly up-regulated
[3]; [7]
  Bax expression: significantly down-regulated
  Cleaved caspase-3 expression: significantly down-regulated
[4]
  growth of hippocampal neurons (cell index, RTCA): can promote the growth of the hippocampal neurons and the extension of neurites
[5]
  growth of hippocampal neurons (live cell station): can promote the growth of the hippocampal neurons and the extension of neurites
